One may read the IC50 as the concentration that inhibits the measured activity by half. Low values mean inhibition by little substance, high ones a need for much substance.

Where only a bound is given, the exact number is not on record here.

The nature of the assay: Inhibitory activity against IgE receptor.
With `CC(C)(C)[C@H](NC(=O)C(C[C@H]1CCc2ccccc2C1)[C@H](O)C(=O)NO)C(N)=O` (some centres not stated), the midpoint of inhibition, the IC50, lay at 70 nM.

Turning to `CC(C)(C)[C@H](NC(=O)C(C[C@@H]1CCc2ccccc2C1)[C@H](O)C(=O)NO)C(N)=O` (some centres not stated), the IC50 is 70 nM. Next, `CNC(=O)[C@H](Cc1ccccc1)NC(=O)[C@H](Cc1cc2cccc(OC)c2o1)[C@H](O)C(=O)NO` [(2R,3S)-2,N*1*-Dihydroxy-3-(7-methoxy-benzofuran-2-ylmethyl)-N*4*-((S)-1-methylcarbamoyl-2-phenyl-ethyl)-succinamide]: > 20000 nM; `CNC(=O)[C@H](Cc1ccccc1)NC(=O)[C@H](Cc1ccc2ccccc2c1)[C@H](O)C(=O)NO` [(2R,3S)-2,N*1*-Dihydroxy-N*4*-((S)-1-methylcarbamoyl-2-phenyl-ethyl)-3-naphthalen-2-ylmethyl-succinamide]: 400 nM.

Regarding `NC(=O)[C@H](Cc1ccccc1)NC(=O)[C@H](Cc1ccc2ccc(OCc3ccccc3)cc2c1)[C@H](O)C(=O)NO` [(2R,3S)-2-(7-Benzyloxy-naphthalen-2-ylmethyl)-N*1*-((S)-1-carbamoyl-2-phenyl-ethyl)-3,N*4*-dihydroxy-succinamide], the concentration for half-maximal inhibition (IC50) is > 20000 nM. In the case of `NC(=O)[C@H](Cc1ccccc1)NC(=O)[C@H](Cc1cc2ccccc2s1)[C@H](O)C(=O)NO` [(2R,3S)-2-Benzo[b]thiophen-2-ylmethyl-N*1*-((S)-1-carbamoyl-2-phenyl-ethyl)-3,N*4*-dihydroxy-succinamide], the IC50 amounted to 20 nM. Next, `CNC(=O)[C@H](Cc1ccccc1)NC(=O)[C@H](Cc1csc2ccccc12)[C@H](O)C(=O)NO` [(2R,3S)-2-Benzo[b]thiophen-3-ylmethyl-3,N*4*-dihydroxy-N*1*-((S)-1-methylcarbamoyl-2-phenyl-ethyl)-succinamide]: > 1000 nM; `CNC(=O)[C@H](Cc1ccccc1)NC(=O)[C@H](Cc1cc2ccccc2o1)[C@H](O)C(=O)NO` [(2R,3S)-2-Benzofuran-2-ylmethyl-3,N*4*-dihydroxy-N*1*-((S)-1-methylcarbamoyl-2-phenyl-ethyl)-succinamide]: 100 nM; `NC(=O)[C@H](Cc1ccccc1)NC(=O)[C@H](Cc1nc2ccccc2s1)[C@H](O)C(=O)NO` [(2R,3S)-2-Benzothiazol-2-ylmethyl-N*1*-((S)-1-carbamoyl-2-phenyl-ethyl)-3,N*4*-dihydroxy-succinamide]: 320 nM. Consider `CC(C)(C)[C@H](NC(=O)[C@H](Cc1ccc2cc(F)c(F)cc2c1)[C@H](O)C(=O)NO)C(N)=O` [(2R,3S)-N*1*-((S)-1-Carbamoyl-2,2-dimethyl-propyl)-2-(6,7-difluoro-naphthalen-2-ylmethyl)-3,N*4*-dihydroxy-succinamide], for which the half-maximal inhibitory concentration (IC50) was > 1000 nM. In the case of `CC(C)(C)[C@H](NC(=O)[C@H](Cc1ccc2ccc(F)cc2c1)[C@H](O)C(=O)NO)C(N)=O` [(2R,3S)-N*1*-((S)-1-Carbamoyl-2,2-dimethyl-propyl)-2-(7-fluoro-naphthalen-2-ylmethyl)-3,N*4*-dihydroxy-succinamide] it was 80 nM. For the compound `NC(=O)[C@H](Cc1ccccc1)NC(=O)[C@H](Cc1sc2ccccc2c1Cl)[C@H](O)C(=O)NO` [(2R,3S)-N*1*-((S)-1-Carbamoyl-2-phenyl-ethyl)-2-(3-chloro-benzo[b]thiophen-2-ylmethyl)-3,N*4*-dihydroxy-succinamide], the IC50 was > 10000 nM.

`NC(=O)[C@H](Cc1ccccc1)NC(=O)[C@H](Cc1ccc2cc(F)ccc2c1)[C@H](O)C(=O)NO` [(2R,3S)-N*1*-((S)-1-Carbamoyl-2-phenyl-ethyl)-2-(6-fluoro-naphthalen-2-ylmethyl)-3,N*4*-dihydroxy-succinamide] returned an IC50 of 220 nM. In the case of `NC(=O)[C@H](Cc1ccccc1)NC(=O)[C@H](Cc1ccc2ccc(F)cc2c1)[C@H](O)C(=O)NO` [(2R,3S)-N*1*-((S)-1-Carbamoyl-2-phenyl-ethyl)-2-(7-fluoro-naphthalen-2-ylmethyl)-3,N*4*-dihydroxy-succinamide] it was 100 nM; in that of `CC(C)(C)[C@H](NC(=O)[C@H](Cc1ccc2ccccc2c1)[C@H](O)C(=O)NO)C(N)=O` [(2R,3S)-N*4*-((S)-1-Carbamoyl-2,2-dimethyl-propyl)-2,N*1*-dihydroxy-3-naphthalen-2-ylmethyl-succinamide], 20 nM; in that of `CC(C)(C)[C@H](NC(=O)[C@H](Cc1cnc2ccccc2c1)[C@H](O)C(=O)NO)C(N)=O` [(2R,3S)-N*4*-((S)-1-Carbamoyl-2,2-dimethyl-propyl)-2,N*1*-dihydroxy-3-quinolin-3-ylmethyl-succinamide], 20 nM. The compound `CC(C)(C)[C@H](NC(=O)[C@H](Cc1ccc2ncccc2c1)[C@H](O)C(=O)NO)C(N)=O` [(2R,3S)-N*4*-((S)-1-Carbamoyl-2,2-dimethyl-propyl)-2,N*1*-dihydroxy-3-quinolin-6-ylmethyl-succinamide] had an IC50 of 1000 nM. `NC(=O)[C@H](Cc1ccccc1)NC(=O)[C@H](Cc1ccc2ccc(O)cc2c1)[C@H](O)C(=O)NO` [(2R,3S)-N*4*-((S)-1-Carbamoyl-2-phenyl-ethyl)-2,N*1*-dihydroxy-3-(7-hydroxy-naphthalen-2-ylmethyl)-succinamide] returned an IC50 of 760 nM. With `NC(=O)[C@H](Cc1ccccc1)NC(=O)[C@H](Cc1ccc2ccccc2c1)[C@H](O)C(=O)NO` [(2R,3S)-N*4*-((S)-1-Carbamoyl-2-phenyl-ethyl)-2,N*1*-dihydroxy-3-naphthalen-2-ylmethyl-succinamide], 600 nM corresponded to half-maximal inhibition (IC50). In the case of `CNC(=O)[C@@H](NC(=O)[C@H](Cc1ccc2c(c1)CCCC2)[C@H](O)C(=O)NO)C(C)(C)C` [(2R,3S)-N*4*-((S)-2,2-Dimethyl-1-methylcarbamoyl-propyl)-2,N*1*-dihydroxy-3-(5,6,7,8-tetrahydro-naphthalen-2-ylmethyl)-succinamide] it was > 10000 nM. Consider `CNC(=O)[C@@H](NC(=O)[C@H](Cc1ccc2ccccc2c1)[C@H](O)C(=O)NO)C(C)(C)C` [(2R,3S)-N*4*-((S)-2,2-Dimethyl-1-methylcarbamoyl-propyl)-2,N*1*-dihydroxy-3-naphthalen-2-ylmethyl-succinamide], for which the IC50 came out at 230 nM. `O=C(C[C@@H](Cc1ccc2ccccc2c1)C(=O)N[C@@H](Cc1ccccc1)C(=O)NCc1ccccc1)NO` [(R)-N*1*-((S)-1-Benzylcarbamoyl-2-phenyl-ethyl)-N*4*-hydroxy-2-naphthalen-2-ylmethyl-succinamide] registered an IC50 of 1000 nM.

Values taken from BindingDB's records for doi:10.1016/s0960-894x(99)00552-1 (Smithkline Beecham Pharmaceuticals, 1999).
